Experiments:
Penicillium [1] = assay: Antifungal activity against Penicillium inclobium after 72 to 96 hr by disk diffusion method; type: functional
Aspergillus flavus [2] = assay: Antifungal activity against Aspergillus flavus after 72 to 96 hr by disk diffusion method; type: functional
[3] = Toxicity in po dosed Mus musculus albino (mouse); type: organism-based; conditions: in vivo
Klebsiella pneumoniae [4] = assay: Antibacterial activity against Klebsiella pneumoniae at 25 ug/ml after 24 hr by disk diffusion method; type: functional; conditions: read-out: IZ
Staphylococcus aureus [5] = assay: Antibacterial activity against Staphylococcus aureus at 25 ug/ml after 24 hr by disk diffusion method; type: functional; conditions: read-out: IZ
Penicillium [6] = assay: Antifungal activity against Penicillium inclobium at 25 ug/ml after 72 to 96 hr by disk diffusion method; type: functional; conditions: read-out: IZ
Escherichia coli [7] = assay: Antibacterial activity against Escherichia coli at 25 ug/ml after 24 hr by disk diffusion method; type: functional; conditions: read-out: IZ
Aspergillus flavus [8] = assay: Antifungal activity against Aspergillus flavus at 25 ug/ml after 72 to 96 hr by disk diffusion method; type: functional; conditions: read-out: IZ
Bacillus subtilis [9] = assay: Antibacterial activity against Bacillus subtilis at 25 ug/ml after 24 hr by disk diffusion method; type: functional; conditions: read-out: IZ
Penicillium [10] = assay: Antifungal activity against Penicillium inclobium at 50 ug/ml after 72 to 96 hr by disk diffusion method; type: functional; conditions: read-out: IZ
Klebsiella pneumoniae [11] = assay: Antibacterial activity against Klebsiella pneumoniae at 50 ug/ml after 24 hr by disk diffusion method; type: functional; conditions: read-out: IZ
Aspergillus flavus [12] = assay: Antifungal activity against Aspergillus flavus at 50 ug/ml after 72 to 96 hr by disk diffusion method; type: functional; conditions: read-out: IZ
Staphylococcus aureus [13] = assay: Antibacterial activity against Staphylococcus aureus at 50 ug/ml after 24 hr by disk diffusion method; type: functional; conditions: read-out: IZ
Escherichia coli [14] = assay: Antibacterial activity against Escherichia coli at 50 ug/ml after 24 hr by disk diffusion method; type: functional; conditions: read-out: IZ
Bacillus subtilis [15] = assay: Antibacterial activity against Bacillus subtilis at 50 ug/ml after 24 hr by disk diffusion method; type: functional; conditions: read-out: IZ
Klebsiella pneumoniae [16] = assay: Antibacterial activity against Klebsiella pneumoniae at 100 ug/ml after 24 hr by disk diffusion method; type: functional; conditions: read-out: IZ
Staphylococcus aureus [17] = assay: Antibacterial activity against Staphylococcus aureus at 100 ug/ml after 24 hr by disk diffusion method; type: functional; conditions: read-out: IZ
Penicillium [18] = assay: Antifungal activity against Penicillium inclobium at 100 ug/ml after 72 to 96 hr by disk diffusion method; type: functional; conditions: read-out: IZ
Aspergillus flavus [19] = assay: Antifungal activity against Aspergillus flavus at 100 ug/ml after 72 to 96 hr by disk diffusion method; type: functional; conditions: read-out: IZ
Escherichia coli [20] = assay: Antibacterial activity against Escherichia coli at 100 ug/ml after 24 hr by disk diffusion method; type: functional; conditions: read-out: IZ
Bacillus subtilis [21] = assay: Antibacterial activity against Bacillus subtilis at 100 ug/ml after 24 hr by disk diffusion method; type: functional; conditions: read-out: IZ
Bacillus subtilis [22] = assay: Antibacterial activity against Bacillus subtilis after 24 hr by disk diffusion method; type: functional
Staphylococcus aureus [23] = assay: Antibacterial activity against Staphylococcus aureus after 24 hr by disk diffusion method; type: functional
Escherichia coli [24] = assay: Antibacterial activity against Escherichia coli after 24 hr by disk diffusion method; type: functional
Klebsiella pneumoniae [25] = assay: Antibacterial activity against Klebsiella pneumoniae after 24 hr by disk diffusion method; type: functional

With `COC1=CC(=O)C[C@@H](C)[C@]12Oc1c(Cl)c(OC)cc(OC)c1C2=O` [GRISEOFULVIN] the “inhibition zone (IZ)” value (Penicillium [1]) was 22 mm and the “inhibition zone (IZ)” value (Aspergillus flavus [2]) was 22 mm.

`O=S1(=O)CC(c2ccc(Cl)cc2)N(CO)C(c2ccc(Cl)cc2)C1` (stereo unspecified) gave an LD50 [3] of at most 1000 mg/kg.

For `COCN1C(c2ccc(Cl)cc2)CS(=O)(=O)CC1c1ccc(Cl)cc1` (stereo unspecified), the zone of inhibition at 25 µg/mL (Klebsiella pneumoniae [4]) was 16 mm, the zone of inhibition at 25 µg/mL (Staphylococcus aureus [5]) was 15 mm and the zone of inhibition at 25 µg/mL (Penicillium [6]) was 14 mm. For the same molecule, the zone of inhibition at 25 µg/mL (Escherichia coli [7]) was 16 mm, the zone of inhibition at 25 µg/mL (Aspergillus flavus [8]) was 12 mm and the zone of inhibition at 25 µg/mL (Bacillus subtilis [9]) was 15 mm.

Molecule `COCN1C(c2ccc(OC)cc2)CS(=O)(=O)CC1c1ccc(OC)cc1` (stereo unspecified) has a zone of inhibition at 50 µg/mL (Penicillium [10]) of 11 mm, a zone of inhibition at 50 µg/mL (Klebsiella pneumoniae [11]) of 11 mm and a zone of inhibition at 50 µg/mL (Aspergillus flavus [12]) of 10 mm. The zone of inhibition at 50 µg/mL (Staphylococcus aureus [13]) was 12 mm, the zone of inhibition at 50 µg/mL (Escherichia coli [14]) was 11 mm and the zone of inhibition at 50 µg/mL (Bacillus subtilis [15]) was 12 mm.

Molecule `O=S1(=O)CC(c2ccc(Cl)cc2)NC(c2ccc(Cl)cc2)C1` (stereo unspecified) has an LD50 [3] of at most 1000 mg/kg.

For `COCN1C(c2ccccc2)CS(=O)(=O)CC1c1ccccc1` (stereo unspecified), the zone of inhibition at 100 µg/mL (Klebsiella pneumoniae [16]) was 7 mm, the zone of inhibition at 100 µg/mL (Staphylococcus aureus [17]) was 7 mm and the zone of inhibition at 100 µg/mL (Penicillium [18]) was 7 mm. It also gave a zone of inhibition at 100 µg/mL (Aspergillus flavus [19]) of 6 mm, a zone of inhibition at 100 µg/mL (Escherichia coli [20]) of 9 mm and a zone of inhibition at 100 µg/mL (Bacillus subtilis [21]) of 6 mm.

For `CCn1cc(C(=O)O)c(=O)c2cc(F)c(N3CCNCC3)cc21` [NORFLOXACIN], the “inhibition zone (IZ)” value (Bacillus subtilis [22]) was 22 mm, the “inhibition zone (IZ)” value (Staphylococcus aureus [23]) was 22 mm and the “inhibition zone (IZ)” value (Escherichia coli [24]) was 22 mm. For the same molecule, the “inhibition zone (IZ)” value (Klebsiella pneumoniae [25]) was 22 mm.
